According to patent US7226730B1, “Transgenic animals and cell lines for screening drugs effective for the treatment or prevention of Alzheimer's Disease” (The General Hospital Corporation, priority 1997, dated 2007):

System: CYZ neuronal cells stably transfected with AD7c-NTP
Experiment: Crystal Violet viability assay in IPTG-induced AD7c-NTP expressing neuronal cells
Conditions: for effect on cell death (percent change in viability, induced over uninduced) / effect on nitric oxide synthase toxicity attributable to AD7c-NTP expression: CYZ cells induced to express AD7c-NTP, FIG. 12; for cell viability under oxidative stress toxins: LacB and LacF cells, 3 mM IPTG 24 or 48 hrs, toxin 6 or 24 hrs, vs LacA-control, FIGS. 10A and 10B
Protocol: AD7c-NTP was cloned into a Lac-Switch expression vector (Stratgene), and CYZ neuronal cells were stably transformed with the construct. Several cell lines were selected that expressed AD7c-NTP at various levels, Lac A-Lac F, after induction of protein expression with IPTG.
Briefly, 10^4 cells/well were seeded into 96-well plates, and were induced to express AD7c-NTP for a period of 6–18 hrs; additionally, in some experiments, cells were exposed to toxins or protective agents for a similar period of time. At the end the treatment period, cells were fixed, permeabilized and immunostained with the appropriate antibody following the ABS procedure. Quantitation was done by incubating cells with a soluble chromagen, stopping the reaction with 2M H2SO4 and determining chromagen absorbance in an automated ELISA reading machine.
For Experiments determining cell viability, after culture and treatment as for the MICE assay, culture media was replaced with a Crystal Violet/PBS/formalin solution. After staining, cells were rinsed thoroughly and lysed with a PBS/1% SDS solution, and absorbance was determined with an automated ELSA reader. Results were graphed as percent viability.

SMILES | effect on cell death (percent change in viability, induced over uninduced) | cell viability under oxidative stress toxins | effect on nitric oxide synthase toxicity attributable to AD7c-NTP expression
OO [Hydrogen peroxide] | exacerbate cell death | increased hypersensitivity | 
COC(=O)[C@@H](N)CCCNC(=N)N[N+](=O)[O-] [L-NAME] |  |  | inhibit or reduce
N=C(N)NCCC[C@H](N)C(=O)O [L-arginine] |  |  | inhibit or reduce
CCN(CC)C(=S)S [diethyldithiocarbamic acid] | exacerbate cell death | increased hypersensitivity | 
